Legend:
TRPM7 = details: cited from earlier work
TRPM6 = details: cited from earlier work
cryo-EM structure = molecular target: the molecule itself; experiment: cryo-EM structure

| Molecule | inhibition of TRPM7 (TRPM7) | inhibition of TRPM6 (TRPM6) | activity against TRPM6 (TRPM6) | stoichiometry N (cryo-EM structure) |
| --- | --- | --- | --- | --- |
| c1ccc2c(c1)CCC[C@H]2Nc1nc2ccccc2[nH]1 [NS8593] | inhibits | inhibits |  |  |
| N#Cc1ccc(COC[C@H]2O[C@@H](n3c(NCc4ccc(Cl)c(Cl)c4)nc4c(N)ncnc43)[C@H](O)[C@@H]2O)cc1 [VER155008] | potent inhibitor |  | inactive |  |
| C-terminally truncated mouse TRPM7 (residues 1-1280) (domain or fragment, UniProt Q923J1 1-1280, looked up) MSQKSWIESTLTKRECVYIIPSSKDPHRCLPGCQICQQLVRCFCGRLVKQHACFTASLAMKYSDVKLGEHFNQAIEEWSVEKHTEQSPTDAYGVINFQGGSHSYRAKYVRLSYDTKPEIILQLLLKEWQMELPKLVISVHGGMQKFELHPRIKQLLGKGLIKAAVTTGAWILTGGVNTGVAKHVGDALKEHASRSSRKICTIGIAPWGVIENRNDLVGRDVVAPYQTLLNPLSKLNVLNNLHSHFILVDDGTVGKYGAEVRLRRELEKTINQQRIHARIGQGVPVVALIFEGGPNVILTVLEYLQESPPVPVVVCEGTGRAADLLAYIHKQTEEGGNLPDAAEPDIISTIKKTFNFGQSEAVHLFQTMMECMKKKELITVFHIGSEDHQDIDVAILTALLKGTNASAFDQLILTLAWDRVDIAKNHVFVYGQQWLVGSLEQAMLDALVMDRVSFVKLLIENGVSMHKFLTIPRLEELYNTKQGPTNPMLFHLIRDVKQGNLPPGYKITLIDIGLVIEYLMGGTYRCTYTRKRFRLIYNSLGGNNRRSGRNTSSSTPQLRKSHETFGNRADKKEKMRHNHFIKTAQPYRPKMDASMEEGKKKRTKDEIVDIDDPETKRFPYPLNELLIWACLMKRQVMARFLWQHGEESMAKALVACKIYRSMAYEAKQSDLVDDTSEELKQYSNDFGQLAVELLEQSFRQDETMAMKLLTYELKNWSNSTCLKLAVSSRLRPFVAHTCTQMLLSDMWMGRLNMRKNSWYKVILSILVPPAILMLEYKTKAEMSHIPQSQDAHQMTMEDSENNFHNITEEIPMEVFKEVKILDSSDGKNEMEIHIKSKKLPITRKFYAFYHAPIVKFWFNTLAYLGFLMLYTFVVLVKMEQLPSVQEWIVIAYIFTYAIEKVREVFMSEAGKISQKIKVWFSDYFNVSDTIAIISFFVGFGLRFGAKWNYINAYDNHVFVAGRLIYCLNIIFWYVRLLDFLAVNQQAGPYVMMIGKMVANMFYIVVIMALVLLSFGVPRKAILYPHEEPSWSLAKDIVFHPYWMIFGEVYAYEIDVCANDSTLPTICGPGTWLTPFLQAVYLFVQYIIMVNLLIAFFNNVYLQVKAISNIVWKYQRYHFIMAYHEKPVLPPPLIILSHIVSLFCCVCKRRKKDKTSDGPKLFLTEEDQKKLHDFEEQCVEMYFDEKDDKFNSGSEERIRVTFERVEQMSIQIKEVGDRVNYIKRSLQSLDSQIGHLQDLSALTVDTLKTLTAQKASEASKVHNEITRELSISKHLAQNLID |  |  |  | 4 |

— article PMC11096667 (Cell reports, 2024)
